# Results published in ChEMBL document CHEMBL1201862, “PubChem BioAssay data set” (2004).
#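 The compound was tested at five concentrations on cells cultured in 96-well plates, with a 48-hour exposure period. Abbreviation: GI50, concentration required for 50% inhibition of growth.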 The source made the active and inactive calls. No stated cut-off is given here; in the data, active = GI50 up to about 1.1 µM and inactive = higher.
# Columns and labels:
# Assay in all cases: DTP human tumour cell line panel, 48 h
# SNB-19 = system: SNB-19
# SK-MEL-5 = system: SK-MEL-5
# RXF 393 = system: RXF 393
# MDA-MB-231 = system: MDA-MB-231
# UACC-62 = system: UACC-62
# OVCAR-5 = system: OVCAR-5
# UACC-257 = system: UACC-257
# NCI-H460 = system: NCI-H460
# NCI-H522 = system: NCI-H522
# K562 = system: K562
# NCI-H226 = system: NCI-H226
# NCI/ADR-RES = system: NCI/ADR-RES
# ACHN = system: ACHN
# SK-MEL-2 = system: SK-MEL-2
# RPMI-8226 = system: RPMI-8226
# MCF7 = system: MCF7
# A549 = system: A549
# 786-0 = system: 786-0
# SR = system: SR
# OVCAR-4 = system: OVCAR-4
# COLO 205 = system: COLO 205
# M14 = system: M14
# SK-OV-3 = system: SK-OV-3
# MDA-MB-435 = system: MDA-MB-435
# T47D = system: T47D
# EKVX = system: EKVX
# HOP-62 = system: HOP-62
# SNB-75 = system: SNB-75
# SF-539 = system: SF-539
# SK-MEL-28 = system: SK-MEL-28
# CAKI-1 = system: CAKI-1
# UO-31 = system: UO-31
# SN12C = system: SN12C
# HT-29 = system: HT-29
# PC-3 = system: PC-3
# CCRF-CEM = system: CCRF-CEM
# OVCAR-8 = system: OVCAR-8
# MOLT-4 = system: MOLT-4
# SF-268 = system: SF-268
# A498 = system: A498
# Hs-578T = system: Hs-578T
# HCT-116 = system: HCT-116
# SF-295 = system: SF-295
# MDA-N = system: MDA-N
# U-251 = system: U-251
# KM12 = system: KM12
# SW-620 = system: SW-620
# TK-10 = system: TK-10
# IGROV-1 = system: IGROV-1
# HOP-92 = system: HOP-92
# NCI-H23 = system: NCI-H23
# BT-549 = system: BT-549
# DU-145 = system: DU-145
# Malme-3M = system: Malme-3M
# HCT-15 = system: HCT-15
# HCC 2998 = system: HCC 2998
# LOX IMVI = system: LOX IMVI
# HL-60 = system: HL-60
# OVCAR-3 = system: OVCAR-3
structure (smiles),measurement,setting,value
CCCCNc1nc2ccccc2c2c1ncn2CC(C)C,GI50,SNB-19,> 100 µM (inactive)
same,GI50,SK-MEL-5,> 100 µM (inactive)
same,GI50,RXF 393,> 100 µM (inactive)
same,GI50,MDA-MB-231,> 100 µM (inactive)
same,GI50,UACC-62,> 100 µM (inactive)
same,GI50,OVCAR-5,> 100 µM (inactive)
same,GI50,UACC-257,> 100 µM (inactive)
same,GI50,NCI-H460,> 100 µM (inactive)
same,GI50,NCI-H522,> 100 µM (inactive)
same,GI50,K562,> 100 µM (inactive)
same,GI50,NCI-H226,> 100 µM (inactive)
same,GI50,NCI/ADR-RES,> 100 µM (inactive)
same,GI50,ACHN,> 100 µM (inactive)
same,GI50,SK-MEL-2,> 100 µM (inactive)
same,GI50,RPMI-8226,> 100 µM (inactive)
same,GI50,MCF7,> 100 µM (inactive)
same,GI50,A549,> 100 µM (inactive)
same,GI50,786-0,> 100 µM (inactive)
same,GI50,SR,> 100 µM (inactive)
same,GI50,OVCAR-4,> 100 µM (inactive)
same,GI50,COLO 205,> 100 µM (inactive)
same,GI50,M14,> 100 µM (inactive)
same,GI50,SK-OV-3,> 100 µM (inactive)
same,GI50,MDA-MB-435,> 100 µM (inactive)
same,GI50,T47D,> 100 µM (inactive)
same,GI50,EKVX,> 100 µM (inactive)
same,GI50,HOP-62,> 100 µM (inactive)
same,GI50,SNB-75,> 100 µM (inactive)
same,GI50,SF-539,> 100 µM (inactive)
same,GI50,SK-MEL-28,> 100 µM (inactive)
same,GI50,CAKI-1,> 100 µM (inactive)
same,GI50,UO-31,> 100 µM (inactive)
same,GI50,SN12C,> 100 µM (inactive)
same,GI50,HT-29,> 100 µM (inactive)
same,GI50,PC-3,> 100 µM (inactive)
same,GI50,CCRF-CEM,> 100 µM (inactive)
same,GI50,OVCAR-8,> 100 µM (inactive)
same,GI50,MOLT-4,> 100 µM (inactive)
same,GI50,SF-268,> 100 µM (inactive)
same,GI50,A498,> 100 µM (inactive)
same,GI50,Hs-578T,> 100 µM (inactive)
same,GI50,HCT-116,> 100 µM (inactive)
same,GI50,SF-295,> 100 µM (inactive)
same,GI50,MDA-N,> 100 µM (inactive)
same,GI50,U-251,> 100 µM (inactive)
same,GI50,KM12,> 100 µM (inactive)
same,GI50,SW-620,> 100 µM (inactive)
same,GI50,TK-10,> 100 µM (inactive)
same,GI50,IGROV-1,> 100 µM (inactive)
same,GI50,HOP-92,> 100 µM (inactive)
same,GI50,NCI-H23,> 100 µM (inactive)
same,GI50,BT-549,> 100 µM (inactive)
same,GI50,DU-145,> 100 µM (inactive)
same,GI50,Malme-3M,> 100 µM (inactive)
same,GI50,HCT-15,> 100 µM
same,GI50,HCC 2998,> 100 µM (inactive)
same,GI50,LOX IMVI,> 100 µM (inactive)
same,GI50,HL-60,> 100 µM (inactive)
same,GI50,OVCAR-3,> 100 µM (inactive)
COc1ccc(C(=O)NCCN(C)C)c2nc3ccccc3cc12,GI50,SNB-19,0.741 µM (active)
same,GI50,SK-MEL-5,1.23 µM (inactive)
same,GI50,RXF 393,2.15 µM (inactive)
same,GI50,MDA-MB-231,2.12 µM (inactive)
same,GI50,UACC-62,0.729 µM (active)
same,GI50,OVCAR-5,0.163 µM (active)
same,GI50,UACC-257,1.58 µM (inactive)
same,GI50,NCI-H460,0.0255 µM (active)
same,GI50,NCI-H522,0.817 µM (active)
same,GI50,K562,1.44 µM (inactive)
same,GI50,NCI-H226,0.785 µM (active)
same,GI50,NCI/ADR-RES,1.67 µM (inactive)
same,GI50,ACHN,0.21 µM (active)
same,GI50,SK-MEL-2,3.01 µM (inactive)
same,GI50,RPMI-8226,0.354 µM (active)
same,GI50,MCF7,0.401 µM (active)
same,GI50,A549,0.0962 µM (active)
same,GI50,786-0,0.305 µM (active)
same,GI50,SR,0.0551 µM (active)
same,GI50,OVCAR-4,1.54 µM (inactive)
same,GI50,COLO 205,1.2 µM (inactive)
same,GI50,M14,1.33 µM (inactive)
same,GI50,SK-OV-3,1.56 µM (inactive)
same,GI50,MDA-MB-435,1.85 µM (inactive)
same,GI50,T47D,2.22 µM (inactive)
same,GI50,EKVX,1.66 µM (inactive)
same,GI50,HOP-62,0.353 µM (active)
same,GI50,SNB-75,4.68 µM (inactive)
same,GI50,SF-539,1.31 µM (inactive)
same,GI50,SK-MEL-28,2 µM (inactive)
same,GI50,CAKI-1,0.241 µM (active)
same,GI50,UO-31,0.532 µM (active)
same,GI50,SN12C,0.386 µM (active)
same,GI50,HT-29,0.596 µM (active)
same,GI50,PC-3,1.38 µM (inactive)
same,GI50,CCRF-CEM,0.208 µM (active)
same,GI50,OVCAR-8,0.655 µM (active)
same,GI50,MOLT-4,0.0411 µM (active)
same,GI50,SF-268,1.58 µM (inactive)
same,GI50,A498,0.114 µM (active)
same,GI50,Hs-578T,1.4 µM (inactive)
same,GI50,HCT-116,0.561 µM (active)
same,GI50,SF-295,0.653 µM (active)
same,GI50,MDA-N,1.46 µM (inactive)
same,GI50,U-251,0.64 µM (active)
same,GI50,KM12,1.34 µM (inactive)
same,GI50,SW-620,0.383 µM (active)
same,GI50,TK-10,1.72 µM (inactive)
same,GI50,IGROV-1,1.32 µM (inactive)
same,GI50,HOP-92,1.32 µM (inactive)
same,GI50,NCI-H23,0.366 µM (active)
same,GI50,BT-549,3.18 µM (inactive)
same,GI50,DU-145,0.753 µM (active)
same,GI50,Malme-3M,0.841 µM (active)
same,GI50,HCT-15,1.35 µM
same,GI50,HCC 2998,2.04 µM (inactive)
same,GI50,LOX IMVI,0.279 µM (active)
same,GI50,HL-60,0.11 µM (active)
same,GI50,OVCAR-3,2 µM (inactive)
